{
  "source": "ChEMBL document CHEMBL5154737",
  "about": "“Semisynthesis and biological evaluation of (+)-sclerotiorin derivatives as antitumor agents for the treatment of hepatocellular carcinoma” (Eur J Med Chem, 2022)",
  "key": {"[1]": {"test": "Toxicity in ICR mouse assessed as change in monocyte count at 100 mg/kg, ip qd (reference value: 0.1 10^9/L)", "format": "organism-based", "conditions": "in vivo"}, "[2]": {"test": "Cytotoxicity against human HepG2 cells assessed as reduction in cell viability incubated for 72 hrs by MTT assay", "format": "toxicity, cell-based"}, "[3]": {"test": "MRT (0 to t) in Sprague-Dawley rat at 20 mg/kg, ip measured for 0.03 to 24 hrs by UPLC-MS analysis", "format": "ADME, organism-based", "conditions": "in vivo, time 0.03-24 hrs"}, "Bel-7402 [4]": {"test_system": "Bel-7402", "test": "Induction of apoptosis in human Bel-7402 cells assessed as early apoptotic cells at 2.5 uM incubated for 24 hrs by Annexin V and Dead cell kit assay (reference value: 3.7 %)", "format": "functional"}, "Bel-7402 [5]": {"test_system": "Bel-7402", "test": "Effect on AKT signalling pathway in human Bel-7402 cells assessed as decrease in phosphorylated-AKT level upto 2.5 uM incubated for 24 hrs by Western blot analysis", "format": "functional, cell-based"}, "[6]": {"test": "Toxicity in ICR mouse assessed as change in red blood cell specific volume at 100 mg/kg, ip qd (reference value: 36.1 %)", "format": "organism-based", "conditions": "in vivo"}, "[7]": {"test": "Biodistribution in kidney of mouse bearing tumor measured after 24 hr by ICG dye based fluorescence imaging", "format": "ADME, organism-based", "conditions": "in vivo"}, "[8]": {"test": "Biodistribution in whole body of mouse bearing tumor measured after 1 hr by ICG dye based fluorescence imaging", "format": "ADME, organism-based", "conditions": "in vivo"}, "[9]": {"test": "Sub-chronic toxicity in ICR mouse assessed as body weight change at 100 mg/kg/day, ip for 26 days", "format": "organism-based", "conditions": "in vivo, 624 h, time 26 day"}, "[10]": {"test": "Sub-chronic toxicity in ICR mouse assessed as behavioural change at 100 mg/kg/day, ip for 26 days", "format": "organism-based", "conditions": "in vivo, 624 h, time 26 day"}, "Bel-7402 [11]": {"test_system": "Bel-7402", "test": "Induction of apoptosis in human Bel-7402 cells assessed as dead cells at 1.25 uM incubated for 24 hrs by Annexin V and dead cell assay kit (reference value: 0.80 %)", "format": "functional"}, "Bel-7402 [12]": {"test_system": "Bel-7402", "test": "Induction of ERK degradation in human Bel-7402 cells at 2.5 uM incubated for 24 hrs in presence of Z-vad-fmk by Western blot analysis", "format": "cell-based"}, "Bel-7402 [13]": {"test_system": "Bel-7402", "test": "Cytotoxicity against human Bel-7402 cells assessed as inhibition rate at 5 uM incubated for 72 hrs by MTT assay relative to control", "format": "functional", "parameters": "scale not given: the % may be the effect or the level left"}, "[14]": {"test": "Acute toxicity in ICR mouse assessed as behavioural change at 100 to 500 mg/kg, ip", "format": "organism-based", "conditions": "in vivo, dose 100-500 mg/kg"}, "Bel-7402 [15]": {"test_system": "Bel-7402", "test": "Induction of apoptosis in human Bel-7402 cells assessed as necrotic cells at 2.5 uM incubated for 24 hrs by Annexin V and Dead cell kit assay (reference value: 1.6 %)", "format": "functional"}, "Bel-7402 [16]": {"test_system": "Bel-7402", "test": "Upregulation of total protein ubiquitination level in human Bel-7402 cells by Western blot analysis", "format": "functional, cell-based", "conditions": "dose <= 10.0 µM, DDE = dose-dependent effect"}, "[17]": {"test": "Toxicity in ICR mouse assessed as change in plateletcrit level at 100 mg/kg, ip qd (reference value: 0.415 %)", "format": "organism-based", "conditions": "in vivo"}, "Bel-7402 [18]": {"test_system": "Bel-7402", "test": "Cytotoxicity against human Bel-7402 cells assessed as inhibition of cell growth incubated for 72 hrs by MTT assay", "format": "functional, cell-based", "conditions": "dose 5.0 µM, DDE = dose-dependent effect"}, "[19]": {"test": "Chronic toxicity in ICR mouse assessed as effect on kidney morphology at 100 mg/kg, ip qd measured after 26 days by H and E staining method", "format": "organism-based", "conditions": "in vivo, 624 h, time 26 day"}, "Bel-7402 [20]": {"test_system": "Bel-7402", "test": "Induction of apoptosis in human Bel-7402 cells assessed as late apoptotic cells at 1.25 uM incubated for 24 hrs by Annexin V and dead cell assay kit (reference value: 4.45 %)", "format": "functional"}, "Bel-7402 [21]": {"test_system": "Bel-7402", "test": "Induction of apoptosis in human Bel-7402 cells assessed as viable cells at 2.5 uM incubated for 24 hrs by Annexin V and Dead cell kit assay (reference value: 90.82 %)", "format": "functional", "conditions": "read-out: Activity"}, "Bel-7402 [22]": {"test_system": "Bel-7402", "test": "Disruption of mitochondrial membrane potential in human Bel-7402 cells incubated for 24 hrs by Rho-123 staining based flow cytometry analysis", "format": "functional, cell-based", "conditions": "dose <= 5.0 µM, DDE = dose-dependent effect"}, "Bel-7402 [23]": {"test_system": "Bel-7402", "test": "Antitumor activity against human Bel-7402 cells xenografted in BALB/c nude mouse assessed as tumor growth inhibition at 10 mg/kg, ip bid measured every 2 days for 14 days relative to control", "format": "functional", "conditions": "Bel-7402, 336 h, time 14 day, read-out: TGI"}, "Bel-7402 [24]": {"test_system": "Bel-7402", "test": "Induction of apoptosis in human Bel-7402 cells assessed as late apoptotic cells at 0.313 uM incubated for 24 hrs by Annexin V and dead cell assay kit (reference value: 4.45 %)", "format": "functional"}, "[25]": {"test": "Drug uptake in tumor of mouse bearing tumor measured after 24 hr by ICG dye based fluorescence imaging", "format": "ADME, tissue-based, Neoplasm", "conditions": "in vivo"}, "Bel-7402 [26]": {"test_system": "Bel-7402", "test": "Induction of apoptosis in human Bel-7402 cells assessed as early apoptotic cells at 0.625 uM incubated for 24 hrs by Annexin V and dead cell assay kit (reference value: 3.75 %)", "format": "functional"}, "Bel-7402 [27]": {"test_system": "Bel-7402", "test": "Induction of apoptosis in human Bel-7402 cells assessed as dead cells at 0.313 uM incubated for 24 hrs by Annexin V and dead cell assay kit (reference value: 0.80 %)", "format": "functional"}, "Bel-7402 [28]": {"test_system": "Bel-7402", "test": "Antitumor activity against human Bel-7402 cells xenografted in BALB/c nude mouse assessed as reduction in tumor growth at 20 mg/kg, ip qd measured every 2 days for 14 days", "format": "functional, organism-based", "conditions": "time 14.0 day"}, "[29]": {"test": "Toxicity in ICR mouse assessed as change in mean corpuscular hemoglobin level at 100 mg/kg, ip qd (reference value: 17.5 pg)", "format": "organism-based", "conditions": "in vivo"}, "Bel-7402 [30]": {"test_system": "Bel-7402", "test": "Induction of apoptosis in human Bel-7402 cells assessed as late apoptotic cells at 2.5 uM incubated for 24 hrs by Annexin V and dead cell assay kit (reference value: 4.45 %)", "format": "functional"}, "[31]": {"test": "Sub-chronic toxicity in ICR mouse assessed as change in amount of food intake at 100 mg/kg/day, ip for 26 days", "format": "organism-based", "conditions": "in vivo, 624 h, time 26 day"}, "[32]": {"test": "Toxicity in ICR mouse assessed as change in mean corpuscular hemoglobin concentration at 100 mg/kg, ip qd (reference value: 343 g/L)", "format": "organism-based", "conditions": "in vivo"}, "Bel-7402 [33]": {"test_system": "Bel-7402", "test": "Induction of apoptosis in human Bel-7402 cells assessed as early apoptotic cells at 0.313 uM incubated for 24 hrs by Annexin V and dead cell assay kit (reference value: 3.75 %)", "format": "functional"}, "Bel-7402 [34]": {"test_system": "Bel-7402", "test": "Antitumor activity against human Bel-7402 cells xenografted in BALB/c nude mouse assessed as tumor growth inhibition at 20 mg/kg, ip bid for 14 days measured every 2 days relative to control", "format": "functional", "conditions": "Bel-7402, 336 h, time 14 day, read-out: TGI"}, "Bel-7402 [35]": {"test_system": "Bel-7402", "test": "Induction of AKT degradation in human Bel-7402 cells at 2.5 uM incubated for 24 hrs in presence of chloroquine by Western blot analysis", "format": "cell-based"}, "Bel-7402 [36]": {"test_system": "Bel-7402", "test": "Induction of apoptosis in human Bel-7402 cells assessed as viable cells at 1.25 uM incubated for 24 hrs by Annexin V and dead cell assay kit (reference value: 91.00%)", "format": "functional", "conditions": "read-out: Activity"}, "Bel-7402 [37]": {"test_system": "Bel-7402", "test": "Induction of apoptosis in human Bel-7402 cells assessed as viable cells at 0.625 uM incubated for 24 hrs by Annexin V and dead cell assay kit (reference value: 91.00%)", "format": "functional", "conditions": "read-out: Activity"}, "[38]": {"test": "Toxicity in ICR mouse assessed as change in platelet count at 100 mg/kg, ip qd (reference value: 742 10^9/L)", "format": "organism-based", "conditions": "in vivo"}},
  "note": "The source made the active and inactive calls. The rule behind the calls is not given here.",
  "data": [
    {"smiles": "CC[C@H](C)/C=C(C)/C=C/C1=CC2=C(Cl)C(=O)[C@](C)(O)C(=O)C2=CN1Cc1ccc(OC(F)(F)F)cc1", "values": [
      {"measurement": "Activity", "setting": "[1]", "result": "0.3 10^9/L"},
      {"measurement": "IC50 at 72 h", "setting": "[2]", "result": 2.82, "unit": "µM"},
      {"measurement": "MRT last", "setting": "[3]", "result": 4.46, "unit": "h"},
      {"measurement": "Activity", "setting": "Bel-7402 [4]", "result": 25.8, "unit": "%"},
      {"measurement": "Activity", "setting": "Bel-7402 [5]", "result": "Active"},
      {"measurement": "Activity", "setting": "[6]", "result": 46, "unit": "%"},
      {"measurement": "Activity", "setting": "[7]", "result": "Active"},
      {"measurement": "Activity", "setting": "[8]", "result": "Active"},
      {"measurement": "Activity", "setting": "[9]", "result": "Non-Toxic"},
      {"measurement": "Activity", "setting": "[10]", "result": "Non-Toxic"},
      {"measurement": "Activity", "setting": "Bel-7402 [11]", "result": 0.75, "unit": "%"},
      {"measurement": "Activity", "setting": "Bel-7402 [12]", "result": "Active"},
      {"measurement": "Activity", "setting": "Bel-7402 [13]", "result": 90.13, "unit": "%"},
      {"measurement": "Activity", "setting": "[14]", "result": "Non-Toxic"},
      {"measurement": "Activity", "setting": "Bel-7402 [15]", "result": 11.15, "unit": "%"},
      {"measurement": "Activity", "setting": "Bel-7402 [16]", "result": "Dde"},
      {"measurement": "Activity", "setting": "[17]", "result": 0.407, "unit": "%"},
      {"measurement": "Activity", "setting": "Bel-7402 [18]", "result": "Dde"},
      {"measurement": "Activity", "setting": "[19]", "result": "Non-Toxic"},
      {"measurement": "Activity", "setting": "Bel-7402 [20]", "result": 5.75, "unit": "%"},
      {"measurement": "viability at 2.5 µM", "setting": "Bel-7402 [21]", "result": 25.1, "unit": "%"},
      {"measurement": "Activity", "setting": "Bel-7402 [22]", "result": "Dde"},
      {"measurement": "inhibition in vivo at 10 mg/kg", "setting": "Bel-7402 [23]", "result": 34.6, "unit": "%"},
      {"measurement": "Activity", "setting": "Bel-7402 [24]", "result": 1.6, "unit": "%"},
      {"measurement": "Drug uptake", "setting": "[25]", "result": "Active"},
      {"measurement": "Activity", "setting": "Bel-7402 [26]", "result": 4.7, "unit": "%"},
      {"measurement": "Activity", "setting": "Bel-7402 [27]", "result": 0.35, "unit": "%"},
      {"measurement": "TGI", "setting": "Bel-7402 [28]", "result": "Active"},
      {"measurement": "Activity", "setting": "[29]", "result": 16.8, "unit": "pg"},
      {"measurement": "Activity", "setting": "Bel-7402 [30]", "result": 35.25, "unit": "%"},
      {"measurement": "Activity", "setting": "[31]", "result": "Non-Toxic"},
      {"measurement": "Activity", "setting": "[32]", "result": 306, "unit": "g/L"},
      {"measurement": "Activity", "setting": "Bel-7402 [33]", "result": 3.75, "unit": "%"},
      {"measurement": "inhibition in vivo at 20 mg/kg", "setting": "Bel-7402 [34]", "result": 52.5, "unit": "%"},
      {"measurement": "Activity", "setting": "Bel-7402 [35]", "result": "Active"},
      {"measurement": "viability at 1.25 µM", "setting": "Bel-7402 [36]", "result": 88.4, "unit": "%"},
      {"measurement": "viability at 0.625 µM", "setting": "Bel-7402 [37]", "result": 91.6, "unit": "%"},
      {"measurement": "Activity", "setting": "[38]", "result": "608 10^9/L"}
    ]}
  ]
}
